Patent publication US4513001A, “β-Adrenergic 1-[1-benzimidazolyl]-N-[2-(4-hydroxy-3-methoxy-phenyl)-2-hydroxy-ethyl]- 3-amino butane and salts and hydrates thereof” (priority 1982, dated 1985)
Where two headings read alike, the source gives them in different places.

Columns and labels:
heart rate [1] = assay: Heart rate of the un-anesthetised dog, oral; format: in vivo, Beagle dog
[2] = Acute toxicity in the mouse, intravenous; settings: in vivo
Text: These two compounds were the subject of an acute toxicity study in the mouse.
The two compounds had similar toxicity and the pharmacological study was able, indifferently, to be carried out with one or the other, the results being, in the two cases, expressed by weight of base per kg of body weight for the in vivo tests and in molar concentration for the in vitro tests.

heart rate [3] = assay: β-stimulant specificity: heart rate of the anesthetised dog, antagonism of compound A tachycardia by acebutolol; format: in vivo
Text: The results below are the averages of the values obtained in 3 dogs.

uterine horn = assay: Uterus relaxing activity in vivo (ocytocine-induced contractions); settings: rat, i.v.; compound A 16.8 μg/kg vs salbutamol 24.9 μg/kg
Procedure: The test was carried out also in the rat.
The aminal was anesthesied by ethyl carbamate.
The contractions caused in an exposed uterine horn immersed in a nutrient bath were recorded (bath: RINGER-LOCKE modified by GADDUM and VOGT). These contractions were induced by the intravenous injection of ocytocine, at the dose of 0.1 IU per kg.
After a control recording of the effects of the latter, the compound A or the Salbutamol were administered intravenously and the further ocytocine injection was carried out; its effect was compared with that of the control reaction.

[4] = T0 + 1 min, perfusion compound A 4.2 μg/kg/min, T0: 157
[5] = T1 + 4 h 1 min, second perfusion compound A after acebutolol
[6] = T1 + 4 h 2 min, second perfusion compound A after acebutolol
[7] = T1 + 4 h 4 min, second perfusion compound A after acebutolol
[8] = T1 + 4 h 6 min, second perfusion compound A after acebutolol

CC(C)(C)NCC(O)c1ccc(O)c(CO)c1 (stereo not drawn) [Salbutamol, reference compound]
Heart rate, average (heart rate [1]; 25 μg base/kg, 15 min, time 0: 92, 12 dogs): 142 | Heart rate, average (heart rate [1]; 25 μg base/kg, 30 min, time 0: 92): 165 | Heart rate, average (heart rate [1]; 25 μg base/kg, 1 h, time 0: 92): 170 | Heart rate, average (heart rate [1]; 25 μg base/kg, 2 h, time 0: 92): 156 | Heart rate, average (heart rate [1]; 25 μg base/kg, 3 h, time 0: 92): 137 | Heart rate, average (heart rate [1]; 25 μg base/kg, 4 h, time 0: 92): 130 | Heart rate, average (heart rate [1]; 25 μg base/kg, 5 h, time 0: 92): 120 | Heart rate, average (heart rate [1]; 83 μg base/kg, 15 min, time 0: 90, 12 dogs): 163 | Heart rate, average (heart rate [1]; 83 μg base/kg, 30 min, time 0: 90): 194 | Heart rate, average (heart rate [1]; 83 μg base/kg, 1 h, time 0: 90): 197 | Heart rate, average (heart rate [1]; 83 μg base/kg, 2 h, time 0: 90): 195 | Heart rate, average (heart rate [1]; 83 μg base/kg, 3 h, time 0: 90): 172 | Heart rate, average (heart rate [1]; 83 μg base/kg, 4 h, time 0: 90): 150 | Heart rate, average (heart rate [1]; 83 μg base/kg, 5 h, time 0: 90): 148 | Heart rate, average (heart rate [1]; 83 μg base/kg, 6 h, time 0: 90): 141 | Heart rate, average (heart rate [1]; 83 μg base/kg, 7 h, time 0: 90): 138 | Tachycardiac activity (comparison with Salbutamol) (heart rate [1]; un-anesthetised dog, in words): more active than compound B: the effect of the low dose of Salbutamol is equal to that of the high dose of compound B

COc1cc(C(O)CNC(C)CCn2cnc3ccccc32)ccc1O (stereo not drawn) [Compound A, 1-[1-benzimidazolyl]-N-[2-(4-hydroxy-3-methoxy-phenyl)2-hydroxy-ethyl]3-amino butane basic sulphate, dihydrate]
LD50 ([2]; as base, confidence limits printed, read-out: LD50 expressed as base): 96 mg/kg | LD50 ([2]; by weight of product, confidence limits p=0.05 printed, read-out: LD50): 114 mg/kg | Heart rate (heart rate [3]; [4]): 180 beats/min | Heart rate variation (heart rate [3]; [4]): +23 | Heart rate variation (heart rate [3]; T0 + 2 min, perfusion compound A): +40 | Heart rate (heart rate [3]; T0 + 2 min, perfusion compound A, T0: 157): 197 beats/min | Heart rate variation (heart rate [3]; T0 + 4 min, perfusion compound A): +45 | Heart rate (heart rate [3]; T0 + 4 min, perfusion compound A, T0: 157): 202 beats/min | Heart rate variation (heart rate [3]; T0 + 6 min = T1, perfusion compound A): +48 | Heart rate (heart rate [3]; T0 + 6 min = T1, perfusion compound A, T0: 157): 205 beats/min | Heart rate (heart rate [3]; [5]): 146 beats/min | Heart rate variation (heart rate [3]; [5]): -11 | Heart rate (heart rate [3]; [6]): 155 beats/min | Heart rate variation (heart rate [3]; [6]): -2 | Heart rate (heart rate [3]; [7]): 160 beats/min | Heart rate variation (heart rate [3]; [7]): +3 | Heart rate (heart rate [3]; [8]): 160 beats/min | Heart rate variation (heart rate [3]; [8]): +3 | Inhibiting activity on ocytocine-induced uterine contractions (comparison with Salbutamol) (uterine horn): inhibiting activity comparable with that of salbutamol
